Test results from patent US7767659B2, “Synthesis of naturally occurring ecteinascidins and related compounds” (Pharma Mar, S.A., priority 2002, dated 2010).
Like-named read-outs stand apart in the source and are kept apart here.

What was measured:
SK-BR-3 = assay: Inhibition of cells growth by colorimetric assay (SRB); settings: Homo sapiens, SK-BR-3, 48 h
Procedure: (§1) This form of the assay employs 96 well cell culture microplates of 9 mm diameter (Faircloth, 1988; Mosmann, 1983). Most of the cell lines are obtained from American Type Culture Collection (ATCC) derived from different human cancer types.
(§2) Cells are maintained in RPMI 1640 10% FBS, supplemented with 0.1 g/l penicillin and 0.1 g/l streptomycin sulfate and then incubated at 37° C., 5% CO2 and 98% humidity. For the experiments, cells were harvested from subconfluent cultures using trypsin and resuspended in fresh medium before plating.
(§3) Cells are seeded in 96 well microtiter plates, at 5×10^3 cells per well in aliquots of 195 μl medium, and they are allowed to attach to the plate surface by growing in drug free medium for 18 hours. Afterward, samples are added in aliquots of 5 μl in a ranging from 10 to 10^−8 μg/ml, dissolved in DMSO/EtOH/PBS (0.5:0.5:99). After 48 hours exposure, the antitumor effect are measured by the SRB methodology: cells are fixed by adding 50 μl of cold 50% (wt/vol) trichloroacetic acid (TCA) and incubating for 60 minutes at 4° C. Plates are washed with deionized water and dried. One hundred μl of SRB solution (0.4% wt/vol in 1% acetic acid) is added to each microtiter well and incubated for 10 minutes at room temperature. Unbound SRB is removed by washing with 1% acetic acid. Plates are air dried and bound stain is solubilzed with Tris buffer. Optical densities are read on a automated spectrophotometric plate reader at a single wavelength of 490 nm.
(§4) The values for mean +/− SD of data from triplicate wells are calculated. Some parameters for cellular responses can be calculated: GI=growth inhibition, TGI=total growth inhibition (cytostatic effect) and LC=cell killing (cytotoxic effect).

LNCaP = assay: as above; settings: Homo sapiens, LNCaP, 48 h
Procedure: as §1, §2, §3, §4

HeLa-APL = assay: as above; settings: Homo sapiens, 48 h; for GI50: read-out: HELA-APL GI50; for CC50: read-out: HELA-APL LC50; for IC (TGI): read-out: HELA-APL TGI
Procedure: as §1, §2, §3, §4

PANC-1 = assay: as above; settings: Homo sapiens, PANC-1, 48 h; for GI50: read-out: PANC-1 GI50; for CC50: read-out: PANC-1 LC50; for IC (TGI): read-out: PANC-1 TGI
Procedure: as §1, §2, §3, §4

IGROV-1 = assay: as above; settings: Homo sapiens, IGROV-1, 48 h; for GI50: read-out: IGROV GI50; for CC50: read-out: IGROV LC50; for IC (TGI): read-out: IGROV TGI
Procedure: as §1, §2, §3, §4

SK-MEL-28 = assay: as above; settings: Homo sapiens, SK-MEL-28, 48 h
Procedure: as §1, §2, §3, §4

LoVo-Dox = assay: as above; settings: Homo sapiens, 48 h; for GI50: read-out: LOVO-DOX GI50; for CC50: read-out: LOVO-DOX LC50; for IC (TGI): read-out: LOVO-DOX TGI
Procedure: as §1, §2, §3, §4

DU-145 = assay: as above; settings: Homo sapiens, DU-145, 48 h
Procedure: as §1, §2, §3, §4

HeLa = assay: as above; settings: Homo sapiens, HeLa, 48 h; for GI50: read-out: HELA GI50; for CC50: read-out: HELA LC50; for IC (TGI): read-out: HELA TGI
Procedure: as §1, §2, §3, §4

K-562 = assay: as above; settings: Homo sapiens, K562, 48 h; for GI50: read-out: K562 GI50; for CC50: read-out: K562 LC50; for IC (TGI): read-out: K562 TGI
Procedure: as §1, §2, §3, §4

IGROV-ET = assay: as above; settings: Homo sapiens, 48 h; for GI50: read-out: IGROV-ET GI50; for CC50: read-out: IGROV-ET LC50; for IC (TGI): read-out: IGROV-ET TGI
Procedure: as §1, §2, §3, §4

HT-29 = assay: cells; settings: Homo sapiens, HT-29, 48 h
Procedure: as §1, §2, §3, §4

LoVo = assay: cells; settings: Homo sapiens, LoVo, 48 h; for GI50: read-out: LOVO GI50; for CC50: read-out: LOVO LC50; for IC (TGI): read-out: LOVO TGI
Procedure: as §1, §2, §3, §4

A-549 = assay: cells; settings: Homo sapiens, A549, 48 h
Procedure: as §1, §2, §3, §4

COc1c(C)cc2c(c1O)[C@H]1N[C@@H](C2)[C@H](O)N2C1[C@@H]1SCC(NC(C)=O)C(=O)OC[C@H]2c2c3c(c(C)c(OC(C)=O)c21)OCO3 (stereo partly drawn) [compound 36]
GI50 (SK-BR-3; read-out: SK-BR3 GI50): 2.87 nM | CC50 (SK-BR-3; read-out: SK-BR3 LC50): 15.4 nM | IC (TGI) (SK-BR-3; read-out: SK-BR3 TGI): 6.65 nM | GI50 (LNCaP; read-out: GI50 LNCAP): 0.46 nM | CC50 (LNCaP; read-out: LC50 LNCAP): 5.06 nM | IC (TGI) (LNCaP; read-out: TGI LNCAP): 1.37 nM | GI50 (HeLa-APL): 1.85 nM | CC50 (HeLa-APL): 10 nM | IC (TGI) (HeLa-APL): 4.3 nM | GI50 (PANC-1): 2.82 nM | CC50 (PANC-1): 2600 nM | IC (TGI) (PANC-1): 9.72 nM | GI50 (IGROV-1): 1.12 nM | CC50 (IGROV-1): 10.4 nM | IC (TGI) (IGROV-1): 3.79 nM | GI50 (SK-MEL-28; read-out: GI50 MEL-28): 1.84 nM | CC50 (SK-MEL-28; read-out: LC50 MEL-28): 8.71 nM | IC (TGI) (SK-MEL-28; read-out: TGI MEL-28): 4.01 nM | GI50 (LoVo-Dox): 246 nM | CC50 (LoVo-Dox): 15600 nM | IC (TGI) (LoVo-Dox): 1090 nM | GI50 (DU-145; read-out: GI50 DU145): 3.58 nM | CC50 (DU-145; read-out: LC50 DU145): 10400 nM | IC (TGI) (DU-145; read-out: TGI DU145): 9.55 nM | GI50 (HeLa): 1.46 nM | CC50 (HeLa): 9.82 nM | IC (TGI) (HeLa): 3.85 nM | GI50 (K-562): 0.246 nM | CC50 (K-562): 5.11 nM | IC (TGI) (K-562): 0.7 nM | GI50 (IGROV-ET): 27.7 nM | CC50 (IGROV-ET): 15600 nM | IC (TGI) (IGROV-ET): 71.7 nM | GI50 (HT-29; read-out: GI50 HT29): 2.73 nM | CC50 (HT-29; read-out: LC50 HT29): 15600 nM | IC (TGI) (HT-29; read-out: TGI HT29): 11.7 nM | GI50 (LoVo): 2.12 nM | CC50 (LoVo): 15.6 nM | IC (TGI) (LoVo): 5.91 nM | GI50 (A-549; read-out: GI50 A549): 5.56 nM | CC50 (A-549; read-out: LC50 A549): 83.8 nM | IC (TGI) (A-549; read-out: TGI A549): 22.9 nM

C=CCN1[C@@H]2c3c(cc(C)c(OC)c3O)C[C@H]1[C@H](C#N)N1C2[C@@H]2SC[C@]3(NCCc4c3[nH]c3ccccc43)C(=O)OC[C@H]1c1c3c(c(C)c(OC(C)=O)c12)OCO3 (stereo partly drawn) [compound 55]
GI50 (LNCaP; read-out: LNCAP GI50): 17.1 nM | CC50 (LNCaP; read-out: LNCAP LC50): 75.7 nM | IC (TGI) (LNCaP; read-out: LNCAP TGI): 36 nM | GI50 (HeLa-APL): 111 nM | CC50 (HeLa-APL): 915 nM | IC (TGI) (HeLa-APL): 323 nM | GI50 (PANC-1): 148 nM | CC50 (PANC-1): 12700 nM | IC (TGI) (PANC-1): 1900 nM | GI50 (IGROV-1): 69.2 nM | CC50 (IGROV-1): 1580 nM | IC (TGI) (IGROV-1): 271 nM | GI50 (SK-MEL-28; read-out: MEL-28 GI50): 88.6 nM | CC50 (SK-MEL-28; read-out: MEL-28 LC50): 698 nM | IC (TGI) (SK-MEL-28; read-out: MEL-28 TGI): 265 nM | GI50 (LoVo-Dox): 333 nM | CC50 (LoVo-Dox): 12700 nM | IC (TGI) (LoVo-Dox): 1570 nM | GI50 (DU-145; read-out: DU145 GI50): 59 nM | CC50 (DU-145; read-out: DU145 LC50): 12700 nM | IC (TGI) (DU-145; read-out: DU145 TGI): 247 nM | GI50 (HeLa): 148 nM | CC50 (HeLa): 887 nM | IC (TGI) (HeLa): 363 nM | GI50 (K-562): 58.4 nM | CC50 (K-562): 1040 nM | IC (TGI) (K-562): 272 nM | GI50 (IGROV-ET): 248 nM | CC50 (IGROV-ET): 4180 nM | IC (TGI) (IGROV-ET): 624 nM | GI50 (HT-29; read-out: HT29 GI50): 75.7 nM | CC50 (HT-29; read-out: HT29 LC50): 12700 nM | IC (TGI) (HT-29; read-out: HT29 TGI): 1810 nM | GI50 (LoVo): 151 nM | CC50 (LoVo): 837 nM | IC (TGI) (LoVo): 356 nM | GI50 (A-549; read-out: A549 GI50): 68.4 nM | CC50 (A-549; read-out: A549 LC50): 1220 nM | IC (TGI) (A-549; read-out: A549 TGI): 286 nM
